Melting point data for 89 compounds are collected here from a melting point compilation (Tetko et al.; mined from patent text by program, amines drawn as free bases though some values may be those of a salt).

Compound `CCOC(=O)C1CC(C)CCN1C(=O)c1ccc(Cl)c(C2(C)C(=O)N(Cc3ccc(OC)cc3OC)c3ccc(Cl)cc32)c1` (centres undefined) had a melting point of 106 °C. For `Cc1c2cccc(-c3cccc(C(=O)NCCO)c3)c2nn1Cc1cccc(C(F)(F)F)c1` the value was 142 to 143 °C; for `CCOC(=O)C=Cc1cc(-c2csc(-c3ccc(OCC)c(OCC)c3)n2)cc(C(=O)OCOC)c1OCOC`, 94 to 96 °C; for `COc1ccc(C(OCC2OC(n3cnc4c(=O)[nH]c(NC(=O)Cc5ccc(Cl)c(Cl)c5)nc43)CC2O)(c2ccccc2)c2ccc(OC)cc2)cc1` (centres undefined), 150 to 155 °C. As to `CSCCNC(=O)c1sc(-c2cccnc2)nc1Cl`, the melting point was in the range of 97 to 98 °C. The value for `O=C1CCc2ccc(O)c(c2)Oc2ccc(cc2)C2OC2CO1` (centres undefined) was 180 to 181 °C; that for `COc1ccc(NC(=O)c2ccccc2O)cc1` was 162 to 163 °C. The value for `Cc1ccc(C(=O)n2c(C)c(CC(=O)O)c3cc4c(cc32)OCCO4)cc1` was 162 to 163 °C; that for `CC(C)(C)OC(=O)c1ncn2c1[C@@H]1CCCN1C(=O)c1c-2ccc(F)c1Cl` was 211 to 212 °C; that for `C=CCOc1ccc(-c2nc3n(c2-c2ccc(OCC=C)cc2)CCS3)cc1` was 135 to 138 °C. The value for `Cn1nc(N)nc1NCCCO` was 139 to 140 °C; that for `CC(C)(C)OC(=O)N1CCC(C(c2cc(F)ccc2F)S(=O)(=O)c2ccc(Cl)cc2)CC1` (centres undefined) was 193 to 196 °C. `CN1C(=O)CC[C@]2(C)c3ccc(-c4ccc(NC(=O)C(C)(C)C)nc4)cc3CC[C@@H]12` had a melting point of 248 to 250 °C. The compound `COCCN1C(=O)C(C)(C)C(=O)Nc2cc(C#N)ccc21` showed a melting point of 184 to 185 °C.

In the case of `CN(N)C1=Nc2ccc(Cl)cc2C(c2ccccc2)=NC1`, the melting point was 167 to 173 °C. `Cc1nc(-c2cn(CC3CC3)nn2)sc1C(=O)NCc1cccnc1` yielded a melting point of 140 to 141 °C. As to `O=C(NC(Cc1ccccc1)c1ncc(C(F)(F)F)cc1Cl)c1c(Cl)cccc1Cl` (centres undefined), the melting point lay in the range of 164 to 168 °C. For `CNc1nc(-c2ccccc2)ccc1[N+](=O)[O-]` the value was 98 to 99 °C; for `COC(=O)c1c2nc3ccccc3c-2[nH]c2ccccc12`, 152 to 154 °C; for `CC(=O)OCC(=O)C1(O)C(C)CC2C3CCC4=CC(=O)CCC4(C)C3C(=O)CC21C` (centres undefined), 214 to 219 °C.

On to `CC(C)(CN)c1ccc2nc(-c3ccc(O)cc3)[nH]c2c1`, for which the melting point lay within 178 to 182 °C. The value for `Cc1ccc(S(=O)(=O)N(c2ccc(F)cc2[N+](=O)[O-])C(C)C)cc1` was 129 to 130 °C; that for `CCOP(C)(=O)CC(CC(C)C)NS(=O)(=O)c1ccc(C)cc1` (centres undefined) was 96 to 105 °C. The value for `CCc1nnc2c(NC(C)=O)nc3ccccc3n12` was 193 to 195 °C; that for `CCCCc1nc(CCc2ccccc2)nn1Cc1ccc(-c2ccccc2-n2cnnn2)cc1` was 156 to 157 °C; that for `O=C(O)Cc1csc2cc(-c3ccccc3)cn12` was 114 to 116 °C. As for `O=c1cc(-c2ccc(O)cc2)oc2ccccc12`, the melting point was 177 to 180 °C. The value for `COc1ccc(CNc2c(Cl)cnn(C)c2=O)cc1` was 94 to 96 °C. `CCOC(=O)C1=NCC(C)(C)c2cc(OC)c3c(c21)CC(C)(C)O3` registered a melting point of 117 to 121 °C. For the compound `O=C(Nc1ccccc1Cl)N1CCc2cc(S(=O)(=O)N3CCN(c4cccc(Cl)c4)CC3)ccc21`, the melting point was in the range of 205 to 206 °C. On to `CC(C)C1(C)N=C2c3ncccc3C(=O)N2C1=O` (centres undefined), for which the melting point was in the range of 125 to 128 °C. For the compound `CCOC(=O)C(=CNc1ncnc2ccc([N+](=O)[O-])cc12)C(=O)OCC`, the melting point lay within 228 to 230 °C.

The compound `CCCCCCCCCC(C)CNc1cccc(-c2ccnc3c(C(=O)c4cccs4)cnn23)c1` (centres undefined) gave a melting point of 108 to 110 °C. `Cc1nn(C(C)C(=O)N(C)C)c(C)c1-c1ccccc1` (centres undefined) displayed a melting point of 122 to 124 °C.

`CC(C)Oc1ccc(CCCCC2SC(=O)NC2=O)cc1` (centres undefined) returned a melting point of 72 to 73 °C. `CCCn1c(COCC)nc2c(N)nc3ccc(OCCCCCCNC(=O)NC(C)C)cc3c21` registered a melting point of 167 to 169 °C. The compound `CC1(Cn2c(=O)oc3ccc(-c4ccccc4)cc32)Cn2cc([N+](=O)[O-])nc2O1` (centres undefined) gave a melting point of 254 to 255 °C. For `CCOc1c(N)c2c(c(OCC)c1OCC)C(C1c3cc(OC)c(OC)cc3CCN1C)OC2=O` (centres undefined) the value was 143 °C; for `CC1Cc2cc(O)c(Cl)c(Cl)c2C1=O` (centres undefined), 224 to 230 °C; for `O=C(O)c1ncccc1OCc1ccc(Cl)cc1`, 144 °C.

On to `c1ccc(-c2nccn3cnnc23)cc1`, for which the melting point lay within 238 to 239 °C. The compound `Fc1ccccc1-c1nc2ncncc2[nH]1` returned a melting point of 267 to 271 °C.

`COc1cc(OC)nc(CN2C(=O)C3(COc4cc5c(cc43)OCCO5)c3ccccc32)n1` (centres undefined) came in with a melting point of 169 to 170 °C. Take `CN(C)c1nc(N)c2ccccc2n1`: the melting point lay in the range of 141 to 142 °C.

The compound `O=C(CN1CCCCC1=O)N1CCC(C2c3ncc(Br)cc3CCc3cc(Cl)cc(Br)c32)CC1` (single isomer, unassigned; (+)) gave a melting point of 138 to 139 °C. For `COC(=O)c1cc(Cl)c(Oc2ccc(OC)c(C(=O)c3ccc(F)cc3)c2)c(Cl)c1` the value was 112 to 115 °C; for `CCCn1nc(C(C)C)c(C(=O)OCc2ccccc2C(=O)c2ccccc2)c1Cc1ccc(-c2ccccc2S(=O)(=O)NC(C)(C)C)c(F)c1`, 49 to 51 °C; for `CN1CCCC1Cc1ccc(N)cc1` (centres undefined), 59 to 61 °C.

For `CCCOc1ccc(S(=O)(=O)Nc2ccc3[nH]ncc3c2)cc1-c1nc2cc(N)c(N)cc2c(=O)[nH]1`, the melting point lay within 261 to 263 °C.

Compound `Cc1c(I)c(=O)n(-c2cc(C(=O)OC(C)C)c(Cl)cc2F)c(=O)n1C` gave a melting point of 147 to 150 °C. The value for `Cc1nc(N)c2nc(CO)n(NCc3ccccc3)c2c1C` was greater than 250 °C; that for `CCOc1cccnc1CSCCN=C(NC)NC#N` was 126 to 128 °C. The value for `CCOC(=O)c1ccc(-c2cnc(-c3ccc(C(F)(F)F)cc3)o2)cc1` was 142 to 143 °C; that for `O=S(=O)(O)c1cccc(Nc2ccnc3cc(Cl)ccc23)c1` was greater than 300 °C. For `CC1(O)OC(=O)c2ccc(Oc3ccc(C(F)(F)F)cc3Cl)cc21` (centres undefined) the value was 100 to 103 °C; for `Cc1ccc2c(c1)N=C(N1CCN(C)CC1)c1cc(Br)cc3c1N2CC3`, 187 to 189 °C; for `CS(=O)(=O)N1CC(=O)c2ccsc2C1`, 120 °C. In the case of `COC(=O)C(=NOCF)c1ccccc1COc1ccccc1C`, the melting point lay in the range of 101 to 102 °C. In the case of `CCCCC(=O)Nc1ccc(C2=N[C@H]3CCN(C)C[C@H]3c3cc(OC)c(OC)cc32)cc1` (relative stereo), the melting point lay within 230 to 235 °C. For `CCCCn1cc2c(n1)c(N)nc1ccccc12` the value was 194 to 195 °C; for `COC(=O)[C@@H](C)NC(=O)CBr`, 51 to 52 °C. The value for `CC(C)(C)OC(=O)N1CCN(c2ccc3[nH]c(S)nc3c2)CC1` was 219 to 220 °C; that for `Cc1ccc(N(C(=O)CCl)c2c(F)cc(F)cc2Cl)cc1` was 137 to 140 °C. `CC(=O)NC(C)COc1c(C)cccc1C` (centres undefined) gave a melting point of 85 to 85.8 °C. As to `COc1cc(C)nc(C)c1C(=O)OC(C)c1nc2c(c(=O)n(C)c(=O)n2C)n1C` (centres undefined), the melting point lay in the range of 135 to 138 °C.

`O=[N+]([O-])c1cnc2ccccc2c1Cl` yielded a melting point of 118 to 119 °C.

For the compound `O=c1[nH]cc(C=CBr)c(=O)[nH]1`, the melting point is greater than 320 °C.

`COc1ccc(C2(C#Cc3ccc(NC(C)=O)cc3)CCC(=O)CC2)cc1OC1CCCC1` showed a melting point of 79 to 80 °C. Turning to `O=C(O)c1ccc(C#CC2(O)CN3CCC2CC3)cc1` (centres undefined), the melting point lay within 288 to 290 °C. For `CN1CCC(N2CC=CC3=C2C(O)c2ccc(Cl)cc2SC3)CC1` (centres undefined) the value was 158 to 160 °C. For `O=C(CCCCCBr)c1cc2c3c(c1)CC(=O)N3CCC2`, the melting point is 86 to 87 °C. Compound `C/C(C=O)=C\COc1cccc2ccccc12` had a melting point of 81.5 to 82.5 °C. For `O=C1OC(=O)c2cc3c(cc21)CCOC3` the value was 156 to 158 °C.

As to `CCCCc1ccc2oc(=O)c(=O)oc2c1`, the melting point fell in the range of 88 to 93 °C. `CC(C)(C)OC(=O)n1cc(C(=O)C2CSC(c3cccnc3)N2)c2cccc(OCc3ccccc3)c21` (centres undefined) registered a melting point of 91 to 96 °C.

Compound `CCOCCOC(=O)C1=C(C)NC(CO)=C(C(=O)OCC)C1c1cccc([N+](=O)[O-])c1` (centres undefined) had a melting point of 99 to 100 °C.

Regarding `CNC(=O)CNC(=O)c1cncc(F)c1`, the melting point lay in the range of 201 to 202 °C.

As for `CN1C2CCC1C(CO)C(c1ccc(I)cc1)C2` (centres undefined), the melting point lay within 90 to 92 °C. For `CCC(C)NC1=NS(=O)(=O)c2sc(C)cc2N1` (centres undefined) the value was 224 to 225 °C. The value for `CC(OC(C)c1ncn2c1CN(C)C(=O)c1cc(Cl)ccc1-2)c1ncn2c1CN(C)C(=O)c1cc(Cl)ccc1-2` (centres undefined) was 193 to 194 °C. In turn, `COc1cc(C(C#Cc2c(C)nc(N)nc2N)OC)cc(OC)c1OC` (centres undefined) yielded a melting point of 127 to 129 °C.

Compound `CCOc1ccc(C(OC2CCN(CCCCCC(=O)O)CC2)c2ccccc2)cc1` (centres undefined) registered a melting point of 110 to 112 °C. For `COc1ccc(N2CCN(c3c(C)c(C)c4c(c3C)C(c3ccc5ccccc5c3)C(C)(C)O4)CC2)cc1` (centres undefined) the value was 170 to 171 °C.

As for `COC(=O)N1C2CC3CC(C2)CC1C3`, the melting point is 88 °C.

In turn, `COc1ccc(-c2cc3ccc(C(=O)O)cc3s2)cc1C12CC3CC(CC(C3)C1)C2` registered a melting point of 305 °C. The value for `C=CCN1CC(c2ccccc2)=C(OCCN(C)C)C1=O` was 115 to 117 °C; that for `CCc1nn(-c2ccc3cc(N=CN(C)C)c(=O)oc3c2)nc1C` was 158 to 159 °C; that for `Cc1coc(NC(=O)C(c2ccccc2)c2ccccc2)n1` was 209 to 211 °C. The value for `O=C(Cc1ccccc1Nc1c(Cl)cccc1Cl)OCCl` was 89 to 91 °C.
